The source made the active and inactive calls.
Tests used:
Assay type in all cases: functional
[1] = target: Dual specificity tyrosine-phosphorylation-regulated kinase 1A (Homo sapiens, UniProt Q13627);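 note: measured against DYRK1A as one member of a broad kinome profiling panel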
[2] = target: Tyrosine-protein kinase ABL1 (Homo sapiens, UniProt P00519)
[3] = target: T1, Serine/threonine-protein kinase TAO1 (Homo sapiens, UniProt Q7L7X3)
T1 sequence (Q7L7X3 whole entry): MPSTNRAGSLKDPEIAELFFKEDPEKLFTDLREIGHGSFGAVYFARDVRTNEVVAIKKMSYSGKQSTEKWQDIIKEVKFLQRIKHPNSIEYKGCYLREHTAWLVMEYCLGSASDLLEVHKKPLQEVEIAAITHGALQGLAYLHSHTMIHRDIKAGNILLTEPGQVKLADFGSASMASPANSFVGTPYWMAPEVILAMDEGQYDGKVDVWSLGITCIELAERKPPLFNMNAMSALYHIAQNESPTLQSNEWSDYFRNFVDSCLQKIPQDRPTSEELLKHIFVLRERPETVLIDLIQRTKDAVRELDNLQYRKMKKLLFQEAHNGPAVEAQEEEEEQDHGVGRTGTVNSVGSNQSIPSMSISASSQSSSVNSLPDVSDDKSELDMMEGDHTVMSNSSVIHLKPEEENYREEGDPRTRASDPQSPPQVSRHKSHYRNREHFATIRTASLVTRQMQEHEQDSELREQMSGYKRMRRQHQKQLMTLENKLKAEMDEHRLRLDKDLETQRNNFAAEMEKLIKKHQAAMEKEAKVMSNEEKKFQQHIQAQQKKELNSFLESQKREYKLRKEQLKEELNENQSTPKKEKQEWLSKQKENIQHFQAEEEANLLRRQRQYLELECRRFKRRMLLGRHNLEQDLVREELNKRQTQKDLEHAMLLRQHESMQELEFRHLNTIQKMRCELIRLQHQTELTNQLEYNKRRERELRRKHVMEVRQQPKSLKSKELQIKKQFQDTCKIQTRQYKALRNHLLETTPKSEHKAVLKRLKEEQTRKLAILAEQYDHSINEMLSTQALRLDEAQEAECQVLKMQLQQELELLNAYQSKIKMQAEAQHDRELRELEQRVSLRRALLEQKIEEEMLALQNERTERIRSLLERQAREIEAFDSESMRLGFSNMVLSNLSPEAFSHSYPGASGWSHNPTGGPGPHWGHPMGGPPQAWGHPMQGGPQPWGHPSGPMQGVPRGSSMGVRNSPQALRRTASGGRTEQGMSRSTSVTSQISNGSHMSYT

[4] = target: Cyclin-dependent kinase 8 (Homo sapiens, UniProt P49336); experiment: Navigating the Kinome. Panel member name: CDK8
[5] = target: BDNF/NT-3 growth factors receptor (Homo sapiens, UniProt Q16620);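 note: NTRK2 measured as one member of a broad kinome-wide kinase profiling panel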
[6] = target: T2, Receptor-type tyrosine-protein kinase FLT3 (Homo sapiens, UniProt P36888);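 note: FLT3 was tested as one member of a kinome-wide kinase panel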
T2 sequence (P36888 whole entry): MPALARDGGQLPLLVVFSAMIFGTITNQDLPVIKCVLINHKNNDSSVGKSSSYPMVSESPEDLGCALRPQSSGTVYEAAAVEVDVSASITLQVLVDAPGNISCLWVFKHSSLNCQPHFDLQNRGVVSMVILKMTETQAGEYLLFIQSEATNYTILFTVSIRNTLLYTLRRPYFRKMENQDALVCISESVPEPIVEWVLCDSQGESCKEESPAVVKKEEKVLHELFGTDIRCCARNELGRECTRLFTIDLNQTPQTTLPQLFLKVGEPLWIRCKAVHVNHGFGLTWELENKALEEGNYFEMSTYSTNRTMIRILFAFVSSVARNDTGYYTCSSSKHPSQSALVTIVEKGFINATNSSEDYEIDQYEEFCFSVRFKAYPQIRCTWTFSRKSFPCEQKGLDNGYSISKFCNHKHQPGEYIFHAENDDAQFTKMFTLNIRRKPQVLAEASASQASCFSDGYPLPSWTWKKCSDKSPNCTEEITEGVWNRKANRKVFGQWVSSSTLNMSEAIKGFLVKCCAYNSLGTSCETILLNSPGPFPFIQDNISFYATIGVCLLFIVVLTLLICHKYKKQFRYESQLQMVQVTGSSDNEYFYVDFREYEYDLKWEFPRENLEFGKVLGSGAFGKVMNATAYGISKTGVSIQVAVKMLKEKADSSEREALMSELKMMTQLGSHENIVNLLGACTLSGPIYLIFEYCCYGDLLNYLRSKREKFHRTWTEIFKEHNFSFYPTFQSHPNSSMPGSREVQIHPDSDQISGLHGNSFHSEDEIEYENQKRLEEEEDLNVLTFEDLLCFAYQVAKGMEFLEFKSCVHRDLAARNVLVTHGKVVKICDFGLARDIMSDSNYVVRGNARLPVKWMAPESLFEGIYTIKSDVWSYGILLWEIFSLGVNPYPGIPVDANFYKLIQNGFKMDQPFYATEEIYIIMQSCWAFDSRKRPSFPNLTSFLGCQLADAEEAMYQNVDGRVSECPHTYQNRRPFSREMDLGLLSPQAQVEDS

[7] = target: Tyrosine-protein kinase BTK (Homo sapiens, UniProt Q06187)
[8] = target: Tyrosine-protein kinase Lck (Homo sapiens, UniProt P06239);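 note: lck was assayed as one member of a kinase panel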
[9] = target: Dual specificity mitogen-activated protein kinase kinase 1 (Homo sapiens, UniProt Q02750); experiment: Navigating the Kinome. Panel member name: MAP2K1
[10] = target: Tyrosine-protein kinase Fyn (Homo sapiens, UniProt P06241)
[11] = target: Insulin-like growth factor 1 receptor (Homo sapiens, UniProt P08069); experiment: Navigating the Kinome. Panel member name: IGF1R
Activated CDC42 kinase 1 = Activated CDC42 kinase 1 (Homo sapiens, UniProt Q07912); experiment: Navigating the Kinome. Panel member name: ACK1
[12] = target: Rho-associated protein kinase 1 (Homo sapiens, UniProt Q13464);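 note: measured within a broad kinome-wide panel profiling many kinases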
[13] = target: Macrophage-stimulating protein receptor (Homo sapiens, UniProt Q04912); experiment: Navigating the Kinome. Panel member name: MST1R
[14] = target: ALK tyrosine kinase receptor (Homo sapiens, UniProt Q9UM73);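 note: ALK tested as one member of a kinase panel screen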
[15] = target: Glycogen synthase kinase-3 beta (Homo sapiens, UniProt P49841);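 note: value comes from a broad kinome profiling panel, with GSK3B as the panel member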
Glycogen synthase kinase-3 beta, sequence (P49841 whole entry): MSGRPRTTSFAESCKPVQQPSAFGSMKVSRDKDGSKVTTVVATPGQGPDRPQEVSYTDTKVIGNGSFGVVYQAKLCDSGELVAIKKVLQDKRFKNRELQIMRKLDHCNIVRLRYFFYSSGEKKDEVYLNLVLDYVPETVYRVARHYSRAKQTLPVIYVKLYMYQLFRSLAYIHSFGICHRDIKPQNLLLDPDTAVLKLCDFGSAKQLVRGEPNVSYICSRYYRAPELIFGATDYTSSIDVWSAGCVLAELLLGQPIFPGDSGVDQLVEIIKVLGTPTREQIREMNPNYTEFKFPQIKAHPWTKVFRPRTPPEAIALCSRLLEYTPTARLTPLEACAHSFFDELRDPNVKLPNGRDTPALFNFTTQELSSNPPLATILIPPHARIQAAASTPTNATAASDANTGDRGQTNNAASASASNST

Tyrosine-protein kinase Fyn, sequence (P06241 whole entry): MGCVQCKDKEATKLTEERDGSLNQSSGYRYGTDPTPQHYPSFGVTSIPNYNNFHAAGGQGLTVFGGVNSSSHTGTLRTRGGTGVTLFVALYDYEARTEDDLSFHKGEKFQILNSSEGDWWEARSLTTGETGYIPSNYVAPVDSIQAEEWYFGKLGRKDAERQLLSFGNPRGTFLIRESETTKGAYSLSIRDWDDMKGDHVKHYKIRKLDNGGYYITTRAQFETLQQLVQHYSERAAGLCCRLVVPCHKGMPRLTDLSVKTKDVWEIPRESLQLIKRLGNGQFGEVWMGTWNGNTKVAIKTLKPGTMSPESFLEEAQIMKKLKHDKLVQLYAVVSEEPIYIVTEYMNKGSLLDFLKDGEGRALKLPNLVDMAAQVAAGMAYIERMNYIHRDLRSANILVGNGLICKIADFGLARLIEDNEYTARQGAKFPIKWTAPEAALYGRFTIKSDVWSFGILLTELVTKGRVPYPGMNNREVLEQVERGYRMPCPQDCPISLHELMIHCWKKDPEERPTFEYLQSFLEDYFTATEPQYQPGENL
Tyrosine-protein kinase Lck, sequence (P06239 whole entry): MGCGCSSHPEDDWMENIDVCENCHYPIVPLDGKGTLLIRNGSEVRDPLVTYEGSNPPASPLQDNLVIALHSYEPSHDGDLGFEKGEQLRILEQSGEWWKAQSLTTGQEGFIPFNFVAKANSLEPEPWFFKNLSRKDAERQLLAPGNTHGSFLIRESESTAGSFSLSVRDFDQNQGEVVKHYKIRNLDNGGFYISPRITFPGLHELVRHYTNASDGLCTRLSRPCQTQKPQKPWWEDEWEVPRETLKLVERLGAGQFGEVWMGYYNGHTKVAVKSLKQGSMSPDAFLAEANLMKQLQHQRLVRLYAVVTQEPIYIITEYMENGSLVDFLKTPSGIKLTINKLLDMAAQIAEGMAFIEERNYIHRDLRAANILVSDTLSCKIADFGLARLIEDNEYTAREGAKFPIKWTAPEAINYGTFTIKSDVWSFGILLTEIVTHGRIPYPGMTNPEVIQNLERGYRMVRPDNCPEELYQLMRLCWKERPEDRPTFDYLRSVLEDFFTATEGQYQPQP
Activated CDC42 kinase 1, sequence (Q07912 whole entry): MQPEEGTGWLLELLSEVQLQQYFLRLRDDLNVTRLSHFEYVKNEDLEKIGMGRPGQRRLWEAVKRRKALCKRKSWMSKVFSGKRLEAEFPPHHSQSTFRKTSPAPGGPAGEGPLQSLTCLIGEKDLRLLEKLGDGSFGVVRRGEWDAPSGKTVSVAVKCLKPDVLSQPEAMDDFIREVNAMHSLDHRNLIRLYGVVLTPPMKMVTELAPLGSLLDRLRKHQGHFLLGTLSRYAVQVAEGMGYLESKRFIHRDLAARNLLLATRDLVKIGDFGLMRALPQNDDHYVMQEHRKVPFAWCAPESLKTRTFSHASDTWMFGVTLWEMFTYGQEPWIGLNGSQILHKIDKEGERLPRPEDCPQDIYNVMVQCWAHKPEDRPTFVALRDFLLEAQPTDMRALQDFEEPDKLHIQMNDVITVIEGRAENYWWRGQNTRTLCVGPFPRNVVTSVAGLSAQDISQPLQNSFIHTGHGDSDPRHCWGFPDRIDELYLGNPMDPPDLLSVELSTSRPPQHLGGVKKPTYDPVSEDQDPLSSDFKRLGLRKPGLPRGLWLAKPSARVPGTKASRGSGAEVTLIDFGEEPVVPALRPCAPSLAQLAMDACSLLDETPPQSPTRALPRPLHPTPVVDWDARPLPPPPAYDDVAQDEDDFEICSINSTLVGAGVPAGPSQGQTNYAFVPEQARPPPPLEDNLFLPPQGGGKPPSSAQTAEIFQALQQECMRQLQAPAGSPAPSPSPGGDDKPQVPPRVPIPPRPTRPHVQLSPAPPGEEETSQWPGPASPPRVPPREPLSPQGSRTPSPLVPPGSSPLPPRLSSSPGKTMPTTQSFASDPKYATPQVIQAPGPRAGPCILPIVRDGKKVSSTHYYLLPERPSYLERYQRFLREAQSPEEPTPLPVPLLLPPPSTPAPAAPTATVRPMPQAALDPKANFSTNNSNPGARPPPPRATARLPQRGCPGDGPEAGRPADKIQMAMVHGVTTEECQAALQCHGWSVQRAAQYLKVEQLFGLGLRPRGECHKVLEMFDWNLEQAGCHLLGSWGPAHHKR
Cyclin-dependent kinase 8, sequence (P49336 whole entry): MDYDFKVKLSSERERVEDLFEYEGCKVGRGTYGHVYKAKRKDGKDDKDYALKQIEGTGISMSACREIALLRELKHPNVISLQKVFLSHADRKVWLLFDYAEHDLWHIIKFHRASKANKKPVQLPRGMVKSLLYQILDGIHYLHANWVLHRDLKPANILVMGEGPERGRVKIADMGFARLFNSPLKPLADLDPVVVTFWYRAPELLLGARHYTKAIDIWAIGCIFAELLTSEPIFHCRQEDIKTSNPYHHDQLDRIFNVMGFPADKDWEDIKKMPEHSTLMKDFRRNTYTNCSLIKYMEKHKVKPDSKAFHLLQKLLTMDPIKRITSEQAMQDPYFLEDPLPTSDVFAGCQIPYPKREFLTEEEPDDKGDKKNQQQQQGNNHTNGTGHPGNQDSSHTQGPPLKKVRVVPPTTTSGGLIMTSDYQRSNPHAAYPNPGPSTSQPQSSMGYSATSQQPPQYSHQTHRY
Rho-associated protein kinase 1, sequence (Q13464 whole entry): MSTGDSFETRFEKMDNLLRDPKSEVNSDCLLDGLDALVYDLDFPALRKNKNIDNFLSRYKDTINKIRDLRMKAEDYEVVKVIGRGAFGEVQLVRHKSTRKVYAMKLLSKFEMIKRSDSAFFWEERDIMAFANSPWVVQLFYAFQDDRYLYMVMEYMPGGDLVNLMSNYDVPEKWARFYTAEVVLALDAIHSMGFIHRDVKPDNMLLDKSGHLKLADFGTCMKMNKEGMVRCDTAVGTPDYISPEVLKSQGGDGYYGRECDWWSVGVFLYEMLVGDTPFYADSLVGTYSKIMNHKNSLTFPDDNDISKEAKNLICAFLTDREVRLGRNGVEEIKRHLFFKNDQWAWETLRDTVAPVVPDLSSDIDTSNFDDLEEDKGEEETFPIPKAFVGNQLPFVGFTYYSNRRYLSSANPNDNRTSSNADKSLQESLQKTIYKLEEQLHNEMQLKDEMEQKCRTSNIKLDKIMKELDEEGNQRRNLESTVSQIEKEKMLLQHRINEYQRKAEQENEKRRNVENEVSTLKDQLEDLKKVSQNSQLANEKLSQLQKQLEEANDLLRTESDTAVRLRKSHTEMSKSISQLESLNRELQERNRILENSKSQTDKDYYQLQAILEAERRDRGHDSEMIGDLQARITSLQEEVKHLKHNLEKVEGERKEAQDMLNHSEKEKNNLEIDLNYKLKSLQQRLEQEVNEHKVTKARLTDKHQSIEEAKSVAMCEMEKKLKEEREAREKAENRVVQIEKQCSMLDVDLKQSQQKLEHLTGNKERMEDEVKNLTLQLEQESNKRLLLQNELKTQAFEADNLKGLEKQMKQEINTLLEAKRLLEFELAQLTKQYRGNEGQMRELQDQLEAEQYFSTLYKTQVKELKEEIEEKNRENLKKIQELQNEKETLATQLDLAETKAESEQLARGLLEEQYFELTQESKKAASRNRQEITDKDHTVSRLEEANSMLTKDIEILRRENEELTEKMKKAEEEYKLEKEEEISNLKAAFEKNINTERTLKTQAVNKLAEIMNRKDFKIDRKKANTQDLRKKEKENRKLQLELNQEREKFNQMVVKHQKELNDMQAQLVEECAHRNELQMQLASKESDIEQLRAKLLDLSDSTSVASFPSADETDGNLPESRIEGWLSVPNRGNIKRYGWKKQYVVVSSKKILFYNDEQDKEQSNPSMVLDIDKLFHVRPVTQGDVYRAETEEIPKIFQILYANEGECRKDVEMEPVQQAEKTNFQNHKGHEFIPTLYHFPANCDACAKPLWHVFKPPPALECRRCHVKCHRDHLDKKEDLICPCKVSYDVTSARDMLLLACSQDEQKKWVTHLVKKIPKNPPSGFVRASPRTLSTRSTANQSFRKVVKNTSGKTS
Dual specificity mitogen-activated protein kinase kinase 1, sequence (Q02750 whole entry): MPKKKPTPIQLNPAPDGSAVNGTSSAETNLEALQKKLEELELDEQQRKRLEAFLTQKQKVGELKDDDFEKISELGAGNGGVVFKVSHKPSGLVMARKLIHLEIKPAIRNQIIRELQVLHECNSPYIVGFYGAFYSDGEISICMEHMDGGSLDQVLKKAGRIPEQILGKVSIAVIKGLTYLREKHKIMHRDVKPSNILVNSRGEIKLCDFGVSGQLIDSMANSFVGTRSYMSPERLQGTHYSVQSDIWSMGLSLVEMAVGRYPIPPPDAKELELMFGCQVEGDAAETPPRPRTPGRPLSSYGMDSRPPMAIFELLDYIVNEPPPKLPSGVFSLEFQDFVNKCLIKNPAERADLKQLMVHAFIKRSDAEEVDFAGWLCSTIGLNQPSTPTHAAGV

Ki [1]	Ki [2]	Ki [3]	Ki [4]	Ki [5]	Ki [6]	Ki [7]	Ki [8]	Ki [9]	Ki [10]	Ki [11]	Ki (Activated CDC42 kinase 1)	Ki [12]	Ki [13]	Ki [14]	Ki [15]	Compound
> 2 µM (inactive)	> 3.16 µM (inactive)	> 6.31 µM (inactive)	> 3.98 µM (inactive)	> 3.98 µM (inactive)	> 3.16 µM (inactive)	> 6.31 µM (inactive)	> 6.31 µM (inactive)	> 3.16 µM (inactive)	> 6.31 µM (inactive)	> 2.51 µM (inactive)	> 3.98 µM (inactive)	> 3.98 µM (inactive)	> 3.98 µM (inactive)	> 6.31 µM (inactive)	–	O=C(Nc1cccc(C(F)(F)F)n1)Nc1ccnc2cc(OC(F)F)ccc12
> 2 µM (inactive)	–	> 2 µM (inactive)	> 3.16 µM (inactive)	> 3.98 µM (inactive)	> 3.16 µM (inactive)	> 6.31 µM (inactive)	3.98 µM (active)	> 3.16 µM (inactive)	> 6.31 µM (inactive)	> 2.51 µM (inactive)	1.58 µM (active)	0.0316 µM (active)	2 µM (active)	1 µM (active)	> 3.98 µM (inactive)	CCC1CC(NS(=O)(=O)C2CC2)CC1c1ncc2cnc3[nH]ccc3n12 (configuration not stated)
3.98 µM (active)	15.8 µM (active)	12.6 µM (active)	7.94 µM (active)	–	–	–	–	50.1 µM (active)	100 µM (active)	–	50.1 µM (active)	50.1 µM (active)	63.1 µM (active)	63.1 µM (active)	63.1 µM (active)	O=c1[nH]c2cc(Br)cnc2[nH]1
> 2 µM (inactive)	3.98 µM (active)	> 6.31 µM (inactive)	> 3.98 µM (inactive)	> 3.98 µM (inactive)	> 3.16 µM (inactive)	> 6.31 µM (inactive)	> 6.31 µM (inactive)	3.16 µM (active)	> 6.31 µM (inactive)	> 2.51 µM (inactive)	> 3.98 µM (inactive)	> 3.98 µM (inactive)	> 3.98 µM (inactive)	> 6.31 µM (inactive)	0.00794 µM (active)	O=C(Nc1cccc(C(F)(F)F)n1)Nc1ccnc2cc(Cl)ccc12

From ChEMBL document CHEMBL1201862, “PubChem BioAssay data set” (2004)
